Measured values as given in paper PMC10812767, “Therapeutic Drug Monitoring of Dalbavancin in Real Life: A Two-Year Experience” (Antibiotics, 2023).

What was measured:
[1] = Therapeutic drug monitoring of plasma dalbavancin concentrations (Cmin, Cmax) by LC-MS/MS; type: in vivo, human (patients)
Text: This study involved a retrospective analysis of TDM that was routinely carried out by the ASST Fatebenefratelli Sacco University Hospital (Milan, Italy) from December 2021 to November 2023; the analysis included samples that were collected within our hospital and those received from other hospitals (our laboratory is a reference laboratory for the TDM of dalbavancin in Lombardy Region, Italy). This service also included the on-demand estimation of the next dalbavancin injection. This estimation required the collection of both the Cmin and the Cmax for dalbavancin. […] Plasma blood samples with dalbavancin were assessed by using ethylene diamine tetra-acetic acid (EDTA)-containing Vacutainers®. All samples were centrifuged at 3000× g, and the plasma was separated and stored at −20 °C. Dalbavancin quantification was performed through a validated LC-MS/MS method that was developed and validated according to the EMA guidelines. The analytical process consisted of a fast protein precipitation protocol of 50 µL of plasma with 400 µL of precipitation solution (methanol/acetonitrile 3/1), centrifugation at 10,000× g, 1:3 dilutions with water, and analysis. […] Waters, Milan, Italy). For quantification, analysis was performed in the ESI-positive mode by monitoring the transition (m/z = 909.45 > 340.2) for dalbavancin.

[2] = Log-linear regression models describing the time distribution of dalbavancin concentrations; details: for Days >4 mg/L / Days >8 mg/L: log-linear regression model, pooled patients
Method: Coupled with the Cmin values, these samples facilitated the development of log-linear regression models describing the time distribution of dalbavancin concentrations for each injection. By targeting the Cmin values for dalbavancin that were not lower than 4 or 8 mg/L, we were able to estimate the number of days needed between each injection to guarantee these targets.
We retrospectively analyzed data from adult patients who received at least 3 doses of dalbavancin for the treatment of osteoarticular and/or periprosthetic joint infections for whom TDM was performed as part of clinical practice. On the day of the scheduled injection, the Cmin for dalbavancin within a 1 h time window before the injection was considered for both Cmin- and Cmax-based TDM. Peak drug concentrations (30 to 60 min after the end of the infusion) were collected only in patients subjected to Cmax-based TDM.
Dalbavacin concentrations were considered both as a continuous variable (expressed as the mean ± standard deviation) and categorical variables, and data (expressed as a percentage) were clustered according to their frequency distribution within the therapeutic ranges proposed in the available literature (>4 or >8 mg/L). Inter-individual variability in the dalbavancin concentrations was calculated as the percentage of the coefficient of variation (CV%). Log-linear regressions were performed using the built-in statistical package in Microsoft Excel (Microsoft Office Software, Microsoft Company, Redmond, WA, USA). The goodness of the log-linear regression models developed by plotting logarithmic concentrations (Y) of dalbavancin with time (X) was quantified using the coefficient of correlation (r). Unpaired t-tests were used to compare the Cmin for dalbavancin, the number of drug injections, and the times of injections between Cmin- and Cmax-based TDM. Statistical significance was set at <0.05 (significant difference) and <0.01 (highly significant difference).

[3] = cited from earlier work

CN[C@H]1C(=O)N[C@@H]2Cc3ccc(cc3)Oc3cc4cc(c3O[C@@H]3O[C@H](C(=O)O)[C@@H](O)[C@H](O)[C@H]3NC(=O)CCCCCCCCC(C)C)Oc3ccc(cc3Cl)[C@@H](O)[C@@H]3NC(=O)[C@H](NC(=O)[C@@H]4NC(=O)[C@@H](NC2=O)c2cc(cc(O)c2Cl)Oc2cc1ccc2O)c1ccc(O)c(c1)-c1c(O[C@H]2O[C@H](CO)[C@@H](O)[C@H](O)[C@@H]2O)cc(O)cc1[C@@H](C(=O)NCCCN(C)C)NC3=O [dalbavancin]
Cmax of dalbavancin, range ([1]; 107 TDM assessments, plasma, 30 to 60 min after end of infusion, LC-MS/MS, range): 74.9 to 995.6 µg/mL
Dalbavancin Cmin CV% ([1]; Cmax-based TDM, 2nd injection): 44%
Dalbavancin Cmin CV% ([1]; Cmax-based TDM, 3rd injection): 46%
Dalbavancin Cmin CV% ([1]; Cmax-based TDM, 4th injection): 40%
Dalbavancin Cmin CV% ([1]; Cmax-based TDM, 5th injection): 21%
Dalbavancin Cmin CV% ([1]; Cmax-based TDM, 6th injection): 32%
Dalbavancin Cmin CV% ([1]; Cmax-based TDM, ≥6 injections): 32%
Dalbavancin Cmin CV% ([1]; Cmin-based TDM, 2nd injection): 45%
Dalbavancin Cmin CV% ([1]; Cmin-based TDM, 3rd injection): 57%
Dalbavancin Cmin CV% ([1]; Cmin-based TDM, 4th injection): 43%
Dalbavancin Cmin CV% ([1]; Cmin-based TDM, 5th injection): 56%
Dalbavancin Cmin CV% ([1]; Cmin-based TDM, 6th injection): 41%
Dalbavancin Cmin CV% ([1]; Cmin-based TDM, ≥6 injections): 37%
Cmin for dalbavancin, range ([1]; human, in vivo, iv): 4.1 to 70.5 µg/mL
Cmin for dalbavancin before the second injection ([1]; human, in vivo, iv, SD): 39.6 ± 35.4 µg/mL
Cmin for dalbavancin, mean ([1]; human, in vivo, iv, SD): 20.7 ± 14.0 µg/mL
Cmax ([1]; human, in vivo, SD): 310 ± 158 µg/mL
Days >4 mg/L ([2]; 2nd injection): 52 days
Days >8 mg/L ([2]; 2nd injection): 42 days
Days >4 mg/L ([2]; 3rd injection): 52 days
Days >8 mg/L ([2]; 3rd injection): 43 days
Days >4 mg/L ([2]; 4th injection): 59 days
Days >8 mg/L ([2]; 4th injection): 48 days
Days >4 mg/L ([2]; 5th injection): 56 days
Days >8 mg/L ([2]; 5th injection): 45 days
Days >4 mg/L ([2]; 6th injection): 53 days
Days >8 mg/L ([2]; 6th injection): 44 days
Days >4 mg/L ([2]; >6 injections): 52 days
Days >8 mg/L ([2]; >6 injections): 42 days
Days >4 mg/L ([2]; Overall): 54 days
Days >8 mg/L ([2]; Overall): 44 days
Days between injections needed to maintain Cmin >8 mg/L ([2]; estimated from pooled log-linear regression models, range over injections): 42 to 48 days
terminal half-life ([3]; ref [1],[2],[3],[4]): > 14 days
total volume of distribution ([3]; ref [2],[3]): ~16 L
